Entries after “also recorded” stand apart in the source; their conditions may differ.
Assays:
[1] = Kidney and liver function parameters; type: in vivo, mice
Excerpt: To evaluate the kidney toxicity, organs were taken for histopathological observation using H&E staining. […] We also did a pathologic examination by H&E staining of other major organs (liver, lung, spleen and heart) from mice that received long-term treatments (not shown). […] Finally, we tested the blood parameters. Levels of secreted liver enzymes (AST and ALT), and blood urea nitrogen were all unchanged after a four-dose treatment with LPC or LPI, indicating a lack of damage to the liver and the kidneys (Table 2).
After the therapeutic experiment was complete, blood samples were collected and allowed to clot for 2 h at room temperature. Serum was obtained through centrifugation for 20 min at 2,000 g. For liver and renal function experiments, the levels of aspartate aminotransferase, alanine aminotransferase, and blood urea nitrogen in the serum were measured. Major organs were collected after treatment and were formalin fixed and processed for routine H&E staining using standard methods. Images were collected using a Nikon light microscope (Nikon). After the A375M tumor reached 600 mm^3, the mice were treated with two weekly IV injections of LPC NPs at a dose of 3.0 mg/kg Pt. Seven days post the last injection, the mice were sacrificed and the tumors are assayed with TUNEL.

1205Lu cells = assay: Cell toxicity assay (MTS); type: cell-based, human; details: 48 h
Experimental: (§1) 1205Lu cells were seeded in 96-well plates at a density of 2000 cells/well and incubated in 10% FBS of DMEM containing 100 U/mL penicillin, and […] streptomycin for 20 h. Then, the medium was removed and replaced by Opti-MEM containing CDDP or LPC NPs. Forty-eight hours later, a CellTiter 96 AQueous One Solution Cell Proliferation Assay (Promega, Madison, Wis.) kit containing the tetrazolium compound MTS was used to assay cell viability according to the manufacturer's protocols.

[2] = H&E histopathology of organs; type: in vivo, mice; details: long-term treatments
[3] = test system: A375M melanoma xenograft tumors; assay: In vivo anticancer efficacy, A375M xenograft; design: species or system nude mice; details: weekly IV, 1.0 mg/kg Pt
Experimental: All procedures involving experimental mice are performed in accordance with the protocols conformed to the Guide for the Care and Use of Laboratory Animals (NIH publication No. 86-23, revised 1985). Female athymic nude mice, 5-6 weeks old and weighing 18-22 g were obtained. 5×10^6 A375M cells were injected subcutaneously into the mice. After 10 days, the mice were randomly divided into four groups (4-6 mice per group). The mice were treated with weekly IV injections of CDDP and LPC NPs and saline as a control. A dose of 1.0 mg/kg Pt was administered. Thereafter, tumor growth and body weight were monitored. Tumor volume was calculated using the following formula: TV=(L×W^2)/2, with W being smaller than L. Finally, mice were sacrificed using a CO2 inhalation method.
After the therapeutic experiment was complete, blood samples were collected and allowed to clot for 2 h at room temperature. […] For liver and renal function experiments, the levels of aspartate aminotransferase, alanine aminotransferase, and blood urea nitrogen in the serum were measured. […]
The tumors were fixed in 4.0% paraformaldehyde (PFA), paraffin-embedded, and sectioned. […] TUNEL-positive nuclei were monitored by using a fluorescence microscope (Nikon, Tokyo, Japan). […] TUNEL-positive cells in three slides of images taken at 40× magnification were counted to quantify apoptosis.

A375M cells [4] = assay: Cell toxicity assay (MTS); type: cell-based, human; details: 48 h, read-out: IC50, growth inhibition
Experimental: as §1, with “A375M” for “1205Lu”, “penicillin” for “penicillin,”, “The” for “Then, the”, “protocols. The IC50 values were calculated using Graphpad Prism 5 (Graphpad Software Inc.)” for “protocols.”

A375M cells [5] = assay: In vitro neighboring effect study (co-culture, Annexin V); type: cell-based, human; details: 48 h co-culture 1:10, A375M-GFP pretreated 50 μM Pt 4 h
Experimental: A375M-GFP cells (2×10^5) were seeded in 6-well plates (Corning Inc., Corning, N.Y.) 20 h before the beginning of the experiments. […] The A375M-GFP cells were mixed with A375M cells at the ratio of 1:10 (total cell number: 2×10^5) and reseeded into 6-well plates. After culturing for 48 h, the cells were stained with Hoechst 33342 (Sigma, St Louis, Mo.) and Annexin V Alexa Fluor® 568 Conjugate (Invitrogen, Carlsbad, Calif.). […] Results were processed using the Cellquest software (Becton-Dickinson).

1205Lu xenograft tumors = assay: In vivo anticancer efficacy, 1205Lu xenograft; design: species or system nude mice; details: 2.0 mg/kg Pt
Experimental: Female athymic nude mice, 5-6 weeks old and weighing 18-22 g were obtained. 1205Lu xenograft tumors were developed through subcutaneous injection of approximately 5 million 1205Lu cells in female nude mice. […] Tumor growth and body weight were monitored. Tumor volume was calculated using the following formula: TV=(L×W^2)/2, with W being smaller than L. Finally, mice were sacrificed by CO2 inhalation. Tumors were collected after treatment and were formalin fixed and processed for TUNEL assay.
The tumors were fixed in 4.0% paraformaldehyde (PFA) and subsequently paraffin-embedded and sectioned. To detect apoptotic cells in tumor tissues, a TUNEL assay, using a DeadEnd™ Fluorometric TUNEL System (Promega, Madison, Wis.), was performed, following the manufacturer's protocol. Cell nuclei, which were stained with green fluorescence, are defined as TUNEL-positive nuclei. TUNEL-positive nuclei were monitored using a fluorescence microscope (Nikon, Tokyo, Japan). The cell nuclei were stained with 4, 6-diaminidino-2-phenyl-indole (DAPI) (Vectashield, Vector Laboratories, Inc., Burlingame, Calif.). To quantify TUNEL-positive cells, green-fluorescence-positive cells are counted in three images taken at 40× magnification.

[6] = Biodistribution of Pt in A375M tumor-bearing mice; type: in vivo; details: twenty-four hours post-IV injection, 1.0 mg/kg Pt
Experimental: […] Tissue samples were digested by concentrated nitric acid overnight at room temperature and processed according to the procedure reported previously the literature.119, 120 The concentration of Pt was measured using ICP-MS.

[7] = test system: H460 subcutaneous xenograft; assay: Tumor growth inhibition study, H460 xenograft; type: in vivo, mice; details: IV every other day, EP 5 mg/kg
Experimental: A tumor growth inhibition study was completed on H460 subcutaneous xenograft mouse models. Mice were inoculated with 5×10^6 […] by subcutaneous injection. Treatment was started when the tumor volumes reached about 100-150mm^3. The mice were randomly assigned into treatment groups (n=5), and intravenously injected different formulations, including […] and free EP. Four injections were performed every other day for a total of 4 injections at an EP dose of 5 mg/kg. Tumor sizes were measured every other day with calipers across their two perpendicular diameters, and the tumor volume was calculated using the following formula: […] Body weight of each mouse is recorded every other day. Humane sacrifice of mice was performed when tumors reached 20 mm in one dimension.

caspase-3/7 = assay: Caspase activation assay; type: cell-based, human; details: NCI H-460 cells, 24 h
Experimental: H460 cells (2×10^5) were treated as mentioned above with all formulations. The cells were lysed with a radio-immunoprecipitation assay (RIPA) buffer that was supplemented with a protease inhibitor cocktail (Promega, Madison, Wis.). The protein lysates were collected by centrifugation at 14,000 rpm for 10 min at 4° C. Protein concentrations were determined using the BCA assay kit (Pierce Biotechnology) following the manufacturer's recommendations. Thirty micrograms protein of each sample was used to detect caspase-3/7 activity of the cell lysates by using an in vitro assay kit according to the manufacturer's instructions (Promega).

PARP-1 = assay: Western blot analysis for PARP; type: cell-based, human; details: H460 cells
Experimental: Forty micrograms of protein per lane was resolved by 4%-12% SDS-PAG Electrophoresis (Invitrogen) before being transferred to polyvinylidenedifluoride (PVDF) membranes (Bio-Rad). The membranes were blocked for 1 h with 5% skim milk at room temperature and then incubated with mouse monoclonal poly (ADPribose) polymerase-1 (PARP-1) antibodies (1:500 dilution; Santa Cruz biotechnology, Inc.) and with β-actin antibody (1:4000 dilution; Santa Cruz biotechnology, Inc.) overnight at 4° C. β-actin was probed as the loading control. The membranes were washed 3 times and then incubated with a secondary antibody (1:4000 dilutions; Santa Cruz biotechnology, Inc.) at room temperature for 1 h. Goat anti-mouse secondary antibody is used for PARP and β-actin primary antibody. Finally, the membranes were washed 4 times and developed by an enhanced chemiluminescence system according to the manufacturer's instructions (Thermo scientific).

H460 tumor = assay: TUNEL and PCNA immunohistochemistry in H460 tumors; type: in vivo, mice; details: three daily IV injections, 5 mg/kg
Experimental: In vivo tumor cell apoptosis was determined by TdT-mediated dUTP Nick-End Labeling (TUNEL) assay. […] Twenty-four hours after the final injection, mice were sacrificed and tumors are fixed in 4% paraformaldehyde solution for 12 h before being embedded in paraffin and sectioned at a thickness of 5 μm. The TUNEL staining was performed as recommended by the manufacturer (Promega). DAPI mounting medium (Vector Laboratories, Inc., Burlingame, Calif.) was dropped on the sections for nucleus staining. Images of TUNEL-stained tumor sections were captured with a fluorescence microscope (Nikon Corp., Tokyo, Japan). The percentage of apoptotic cells was obtained by dividing the number of apoptotic cells(TUNEL positive cells shown as green dots) from the number of total cells(blue nuclei stained by DAPI, not shown) in each microscopic field, and 10 representative microscopic fields were randomly selected in each treatment group for this analysis. Proliferation of tumor cells after the aforementioned treatments and dosing schedule was detected by immunohistochemistry, using an antibody against proliferating cell nuclear antigen (PCNA) (1:200 dilution, Santa Cruz). The immunohistochemistry was performed using a mouse-specific HRP/DAB detection IHC kit as recommended by the manufacturer (Abcam, Cambridge, Mass.). […]

H460 cells [8] = assay: In vitro cell viability assay (MTT); type: cell-based, human; details: NCI-H460, 36 h
Experimental: In vitro cell viability of IEP nanoparticles was determined by using the 3-[4,5-dimethylthiazol-2-yl]-2,5-diphenyltetrazolium bromide (MTT) assay. H460 cells were seeded at a density of 1×10^4 per well in96-well plates 24 hours prior to treatment. The cells were treated with different concentrations of IEP-PEG, IEP-PEG AA, free Indium chloride, free outer liposome and free etoposide phosphate for 36 h. The concentrations of indium chloride and free liposomes were maintained in equal mounts used for IEP-PEG and IEP-PEG AA. The medium was replaced with fresh medium containing 5% MTT (Biosynth Inc.) solution and incubated at 37° C. for another 4 h. The resulting formazan crystals were solubilized by adding 100 μL DMSO/Methanol (50:50) solution to each well. The absorbance at 570 nm wavelength was measured with a micro plate reader. Cell viability was calculated as the percentage of the absorbance of the treated cells to that of untreated cells.

H460 cells [9] = assay: Cell cycle analysis (flow cytometry); type: cell-based, human; details: H460, 24 h
Experimental: H460 cells (2×10^5) were seeded in 6-well plates 24 h prior to the treatment. The formulations, IEP-PEG, IEP-PEG AA, InCl3, free liposome and free drug were added and incubated for 24 h at 37° C., humidified CO2 incubator. The cells were trypsinized and washed with PBS followed by fixation in pre-cooled 70% ethanol at −20° C. for at least 1 h. Fixed cells were washed with PBS staining buffer (BD Pharmingen, San Diego, Calif.) and incubated with RNAase (final concentration […]) at 37° C. for 30 min, followed by incubation with […] propidium iodide (PI) at room temperature for 30 min. Finally, cells were washed and suspended in PBS, and analyzed with a FACS Canto flow cytometer (BD Biosciences) to measure the PI intensity, which correlates with the DNA content in the cell cycle. A total of 20,000 events are acquired for each sample and data were analyzed with FACS Diva software (BD Biosciences).

Row | SMILES | AST and ALT functional parameters ([1]; A375M study, FIG. 33) | ALT ([1]; four-dose treatment, mean ± SD) [U/L] | AST ([1]; four-dose treatment, mean ± SD) [U/L] | BUN ([1]; four-dose treatment, mean ± SD) [mg/dL] | IC50 (1205Lu cells) [µM] | damage of other major organs (H&E) [2] | tumor growth [3] | IC50 (A375M cells [4]) [µM] | apoptotic cells in the untreated cell population (A375M cells [5]) | apoptosis in tumor (TUNEL) (1205Lu xenograft tumors) [%] | tumor growth (1205Lu xenograft tumors; weekly IV) | accumulation in the tumors [6] | tumor growth [7] | caspases 3 and 7 activity relative to untreated control (caspase-3/7) | increase in the 89 kDa PARP-1 cleavage product (PARP-1) | PCNA positive cells in tumor sections (H460 tumor) | cell viability / toxicity (MTT) (H460 cells [8]) | cells at G2/M phase (H460 cells [9])
1 | N.N.[Cl][Pt][Cl] [CDDP, cis-diaminedichloroplatinum(II)] | fall within the normal range | 54.3 ± 9.7 | 105.7 ± 27.1 | 25.7 ± 0.6 | 12.4 | no toxicities in heart and lung | ineffective; also recorded: not effective at all | 10.2 | less than 6% | 6.3 | partial effect | 1.2 % of the injected dose per gram |  |  |  |  |  | 
2 | COc1cc([C@@H]2c3cc4c(cc3[C@@H](O[C@@H]3O[C@@H]5CO[C@@H](C)O[C@H]5[C@H](O)[C@H]3O)[C@H]3COC(=O)[C@H]23)OCO4)cc(OC)c1OP(=O)(O)O [EP, Etoposide phosphate] |  |  |  |  |  |  |  |  |  |  |  |  | minimal impact on tumor growth | 4 fold | readily detectable | 75-80% | dose-dependent toxicity | About 50%
3 | [Cl-].[Cl-].[Cl-].[In+3] [Indium chloride] |  |  |  |  |  |  |  |  |  |  |  |  |  | no effect | no effect |  | no effect on viability | no discernable effect

Reference: patent US20150246137A1, “LIPID COATED NANOPARTICLES CONTAINING AGENTS HAVING LOW AQUEOUS AND LIPID SOLUBILITIES AND METHODS THEREOF” (THE UNIVERSITY OF NORTH CAROLINA AT CHAPEL HILL, priority 2012, published 2015)
